Patent US12331051B2 (priority 2021, dated 2025)
Entries after “also recorded” stand apart in the source; their conditions may differ. Read-outs that look alike come from different tables or passages of the source.

How the values were obtained:
5-HT4 receptor = target: T1, 5-HT4 receptor (Homo sapiens, UniProt Q13639); assay: G protein dissociation assay; format: cell-based; settings: FIG. 15
T1 construct: expressed in transfected cells; host or cells: HEK293T

5-HT2A receptor [1] = target: T2, 5-HT2A receptor (Homo sapiens, UniProt P28223); assay: 5-HT2A receptor internalization, NanoBit HiBit-fused 5-HT2A in HEK293T cells; format: cell-based; design: expressed in transfected cells; host or cells: HEK293T
T2 sequence (P28223 whole entry, the tested form may be a part): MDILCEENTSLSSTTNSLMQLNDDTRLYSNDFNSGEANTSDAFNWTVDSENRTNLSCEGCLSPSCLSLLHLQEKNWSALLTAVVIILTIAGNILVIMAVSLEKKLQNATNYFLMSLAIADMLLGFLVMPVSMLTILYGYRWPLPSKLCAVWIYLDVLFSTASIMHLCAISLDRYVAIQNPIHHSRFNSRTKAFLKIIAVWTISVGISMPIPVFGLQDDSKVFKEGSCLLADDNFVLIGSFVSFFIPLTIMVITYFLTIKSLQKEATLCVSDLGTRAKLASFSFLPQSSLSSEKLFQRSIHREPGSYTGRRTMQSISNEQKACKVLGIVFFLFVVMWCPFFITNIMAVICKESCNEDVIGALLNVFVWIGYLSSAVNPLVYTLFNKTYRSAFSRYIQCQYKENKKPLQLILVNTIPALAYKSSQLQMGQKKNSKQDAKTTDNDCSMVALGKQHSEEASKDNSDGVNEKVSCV
Procedure: To assess the ability of the “E559 polymorph” to induce β-arrestin-mediated 5-HT2A receptor internalization in vitro, the loss of surface expression of 5-HT2A receptor was measured using a NanoBit N-terminal HiBit-fused 5-HT2A construct cloned in HEK293T cells (1:15 ratio 5-HT2A: β-arrestin2). In brief, cells were treated with serial dilution of test compounds for 1 hour or a specified time point.

5-HT2A receptor [2] = target: T2, 5-HT2A receptor
[3] = target: CHRM2 (M2 muscarinic receptor) (Homo sapiens, UniProt P08172); assay: BRET-based G protein dissociation assay; format: cell-based
[4] = target: H2 histaminergic receptor (Homo sapiens, UniProt P25021); assay: BRET-based G protein dissociation assay; format: cell-based
Chain of H2 histaminergic receptor (P25021 whole entry): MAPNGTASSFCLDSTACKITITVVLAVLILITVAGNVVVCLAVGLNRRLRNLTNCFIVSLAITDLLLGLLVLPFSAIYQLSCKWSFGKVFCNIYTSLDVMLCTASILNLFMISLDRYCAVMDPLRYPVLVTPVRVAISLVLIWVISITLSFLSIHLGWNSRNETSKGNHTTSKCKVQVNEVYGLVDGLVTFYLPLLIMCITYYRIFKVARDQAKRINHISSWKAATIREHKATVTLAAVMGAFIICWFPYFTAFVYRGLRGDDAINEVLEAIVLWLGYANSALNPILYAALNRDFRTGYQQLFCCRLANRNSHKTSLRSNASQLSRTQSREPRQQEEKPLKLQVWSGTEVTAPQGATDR

D5 dopamine receptor = D5 dopamine receptor (Homo sapiens, UniProt P21918); assay: BRET-based G protein dissociation assay; format: cell-based
Chain of D5 dopamine receptor (P21918 whole entry): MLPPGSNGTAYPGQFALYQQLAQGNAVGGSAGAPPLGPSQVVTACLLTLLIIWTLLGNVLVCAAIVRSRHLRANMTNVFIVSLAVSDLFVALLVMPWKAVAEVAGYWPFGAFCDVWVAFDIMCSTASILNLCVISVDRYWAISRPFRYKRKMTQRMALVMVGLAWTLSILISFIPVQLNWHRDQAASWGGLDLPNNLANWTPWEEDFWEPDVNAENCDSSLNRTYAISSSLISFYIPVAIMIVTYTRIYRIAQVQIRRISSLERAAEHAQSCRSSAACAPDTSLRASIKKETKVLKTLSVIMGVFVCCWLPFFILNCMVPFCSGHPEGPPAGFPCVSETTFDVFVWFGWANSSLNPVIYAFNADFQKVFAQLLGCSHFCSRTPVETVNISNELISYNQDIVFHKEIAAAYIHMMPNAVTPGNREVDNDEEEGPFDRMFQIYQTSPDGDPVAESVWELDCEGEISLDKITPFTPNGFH

[5] = target: T3, CHRM4 (M4 muscarinic receptor) (Homo sapiens, UniProt P08173); assay: BRET-based G protein dissociation assay; format: cell-based
T3 sequence (P08173 1-479): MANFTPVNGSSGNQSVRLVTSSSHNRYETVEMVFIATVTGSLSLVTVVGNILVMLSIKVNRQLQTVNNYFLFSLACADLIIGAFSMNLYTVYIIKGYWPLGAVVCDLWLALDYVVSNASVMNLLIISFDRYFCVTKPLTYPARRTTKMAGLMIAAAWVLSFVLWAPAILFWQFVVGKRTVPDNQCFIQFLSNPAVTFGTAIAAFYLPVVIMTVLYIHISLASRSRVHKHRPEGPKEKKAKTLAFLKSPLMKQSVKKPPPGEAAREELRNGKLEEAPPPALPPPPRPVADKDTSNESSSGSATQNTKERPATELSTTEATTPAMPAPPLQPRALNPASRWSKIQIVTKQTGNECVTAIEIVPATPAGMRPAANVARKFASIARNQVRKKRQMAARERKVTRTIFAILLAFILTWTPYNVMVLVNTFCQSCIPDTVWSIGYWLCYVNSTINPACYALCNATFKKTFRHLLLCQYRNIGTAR

5-HT6 = 5-HT6 (Homo sapiens, UniProt P50406); assay: G protein dissociation and cAMP accumulation second messenger assays; format: cell-based; design: expressed in transfected cells; host or cells: HEK293T
Chain of 5-HT6 (P50406 whole entry): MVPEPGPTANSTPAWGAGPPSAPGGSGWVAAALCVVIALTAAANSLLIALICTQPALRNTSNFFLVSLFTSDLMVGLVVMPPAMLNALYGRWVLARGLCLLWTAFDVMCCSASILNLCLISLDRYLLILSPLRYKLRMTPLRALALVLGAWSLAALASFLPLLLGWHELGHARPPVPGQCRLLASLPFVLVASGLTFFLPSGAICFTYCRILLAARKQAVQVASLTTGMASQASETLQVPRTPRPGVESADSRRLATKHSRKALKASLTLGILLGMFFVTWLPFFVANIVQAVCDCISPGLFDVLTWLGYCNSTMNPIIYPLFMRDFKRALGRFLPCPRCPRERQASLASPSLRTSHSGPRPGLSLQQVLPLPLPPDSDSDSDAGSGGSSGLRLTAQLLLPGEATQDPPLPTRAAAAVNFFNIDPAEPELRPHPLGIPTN

D1 dopamine receptor = D1 dopamine receptor (Homo sapiens, UniProt P21728); assay: BRET-based G protein dissociation assay; format: cell-based
Chain of D1 dopamine receptor (P21728 whole entry): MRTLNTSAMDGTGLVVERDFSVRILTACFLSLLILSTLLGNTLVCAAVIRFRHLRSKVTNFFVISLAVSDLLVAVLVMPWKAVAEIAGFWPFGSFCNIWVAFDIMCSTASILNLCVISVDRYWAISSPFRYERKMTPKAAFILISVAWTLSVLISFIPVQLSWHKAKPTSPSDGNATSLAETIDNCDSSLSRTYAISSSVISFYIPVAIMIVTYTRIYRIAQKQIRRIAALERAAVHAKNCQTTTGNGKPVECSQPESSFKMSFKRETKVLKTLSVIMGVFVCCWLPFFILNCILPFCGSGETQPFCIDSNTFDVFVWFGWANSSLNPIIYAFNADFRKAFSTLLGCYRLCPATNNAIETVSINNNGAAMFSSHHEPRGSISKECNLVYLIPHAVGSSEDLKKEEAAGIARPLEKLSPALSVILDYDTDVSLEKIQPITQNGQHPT

5-HT5A receptor = target: T4, 5-HT5A receptor (Homo sapiens, UniProt P47898); assay: G protein dissociation assay; format: cell-based
T4 construct: expressed in transfected cells; host or cells: HEK293T
T4 sequence (P47898 whole entry): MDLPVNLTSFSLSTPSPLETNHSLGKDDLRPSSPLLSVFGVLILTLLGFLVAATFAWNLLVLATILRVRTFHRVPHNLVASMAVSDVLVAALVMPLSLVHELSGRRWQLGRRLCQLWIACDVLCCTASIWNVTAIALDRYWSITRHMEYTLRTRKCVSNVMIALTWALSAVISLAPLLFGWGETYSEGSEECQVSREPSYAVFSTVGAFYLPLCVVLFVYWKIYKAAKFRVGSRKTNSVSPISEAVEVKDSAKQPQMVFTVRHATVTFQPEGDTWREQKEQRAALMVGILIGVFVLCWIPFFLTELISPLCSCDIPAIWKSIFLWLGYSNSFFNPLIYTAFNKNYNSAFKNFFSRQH

D4 dopamine receptor = target: T5, D4 dopamine receptor (Homo sapiens, UniProt P21917); assay: BRET-based G protein dissociation assay; format: cell-based
T5 sequence (P21917 1-419): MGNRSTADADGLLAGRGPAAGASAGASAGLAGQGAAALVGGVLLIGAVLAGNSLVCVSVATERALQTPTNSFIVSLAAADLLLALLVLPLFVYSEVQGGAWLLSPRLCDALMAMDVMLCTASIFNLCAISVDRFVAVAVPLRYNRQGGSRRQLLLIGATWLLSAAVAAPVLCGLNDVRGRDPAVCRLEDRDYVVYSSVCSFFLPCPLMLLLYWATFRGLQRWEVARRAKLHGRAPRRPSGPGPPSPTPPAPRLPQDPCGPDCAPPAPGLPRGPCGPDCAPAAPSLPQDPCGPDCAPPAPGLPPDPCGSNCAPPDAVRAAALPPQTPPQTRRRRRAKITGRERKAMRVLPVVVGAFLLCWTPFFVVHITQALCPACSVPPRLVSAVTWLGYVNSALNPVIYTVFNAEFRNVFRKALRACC

[6] = target: CHRM1 (M1 muscarinic receptor) (Homo sapiens, UniProt P11229); assay: BRET-based G protein dissociation assay; format: cell-based
Chain of CHRM1 (M1 muscarinic receptor) (P11229 whole entry): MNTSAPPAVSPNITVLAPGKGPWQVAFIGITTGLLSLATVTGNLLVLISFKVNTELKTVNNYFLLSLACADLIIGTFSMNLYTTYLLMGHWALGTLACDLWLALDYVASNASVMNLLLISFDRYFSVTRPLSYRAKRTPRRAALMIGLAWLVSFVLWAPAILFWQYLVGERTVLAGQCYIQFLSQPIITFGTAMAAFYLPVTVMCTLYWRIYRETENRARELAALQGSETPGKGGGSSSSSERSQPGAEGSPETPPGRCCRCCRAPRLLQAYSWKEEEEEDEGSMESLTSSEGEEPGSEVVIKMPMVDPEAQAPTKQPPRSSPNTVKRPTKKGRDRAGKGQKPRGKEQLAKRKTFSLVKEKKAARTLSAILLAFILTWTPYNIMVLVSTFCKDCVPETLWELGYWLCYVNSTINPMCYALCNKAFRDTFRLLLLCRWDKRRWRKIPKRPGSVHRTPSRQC

5-HT7 receptor = target: T6, 5-HT7 receptor (Homo sapiens, UniProt P34969); assay: G protein dissociation and cAMP accumulation second messenger assays; format: cell-based
T6 construct: expressed in transfected cells; host or cells: HEK293T
T6 sequence (P34969 1-445 isoform P34969-2): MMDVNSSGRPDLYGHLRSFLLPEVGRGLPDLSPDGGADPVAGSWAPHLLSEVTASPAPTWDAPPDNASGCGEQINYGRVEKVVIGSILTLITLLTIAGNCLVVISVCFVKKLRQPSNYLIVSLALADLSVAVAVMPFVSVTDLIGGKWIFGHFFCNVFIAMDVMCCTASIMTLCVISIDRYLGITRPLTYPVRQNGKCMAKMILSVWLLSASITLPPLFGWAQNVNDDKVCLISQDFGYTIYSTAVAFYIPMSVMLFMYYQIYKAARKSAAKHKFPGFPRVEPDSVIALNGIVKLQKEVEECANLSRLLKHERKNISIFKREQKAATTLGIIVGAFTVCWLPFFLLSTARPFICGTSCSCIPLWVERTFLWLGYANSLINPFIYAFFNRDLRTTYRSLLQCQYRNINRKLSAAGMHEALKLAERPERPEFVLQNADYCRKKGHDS

male C57BL/6J mice = assay: Head-twitch response (HTR) mouse model; format: in vivo
Procedure: The HTR mouse model is widely used as a proxy behavioral assay for hallucinogenic activity in humans [Halbertstad et al., Neuropharmacology, 2020, V167: 107933; Halberstadt et. al., Psychopharmacology (Berl). 2013, 227(4):727-39].
The magnet implants mounting and magnetometer assessments were conducted as described previously (Halberstadt et al., Psychopharmacology (Berl). 2013 227(4): 727-739). Data are represented as group means±standard deviation for the entire 60 minutes test session (FIG. 10A) and individual data points per 2 minutes blocks (FIG. 10B). Asterisks indicate statistical significances compared to the control (0 mg/kg).

5-HT2B receptor = target: T7, 5-HT2B receptor (Homo sapiens, UniProt P41595); assay: 5-HT2B Gq dissociation, β-arrestin2 recruitment and Gq-mediated calcium flux in HEK293T cells; format: cell-based
T7 construct: expressed in transfected cells; host or cells: HEK293T; Flp-In 293 T-Rex (calcium flux)
T7 sequence (P41595 whole entry): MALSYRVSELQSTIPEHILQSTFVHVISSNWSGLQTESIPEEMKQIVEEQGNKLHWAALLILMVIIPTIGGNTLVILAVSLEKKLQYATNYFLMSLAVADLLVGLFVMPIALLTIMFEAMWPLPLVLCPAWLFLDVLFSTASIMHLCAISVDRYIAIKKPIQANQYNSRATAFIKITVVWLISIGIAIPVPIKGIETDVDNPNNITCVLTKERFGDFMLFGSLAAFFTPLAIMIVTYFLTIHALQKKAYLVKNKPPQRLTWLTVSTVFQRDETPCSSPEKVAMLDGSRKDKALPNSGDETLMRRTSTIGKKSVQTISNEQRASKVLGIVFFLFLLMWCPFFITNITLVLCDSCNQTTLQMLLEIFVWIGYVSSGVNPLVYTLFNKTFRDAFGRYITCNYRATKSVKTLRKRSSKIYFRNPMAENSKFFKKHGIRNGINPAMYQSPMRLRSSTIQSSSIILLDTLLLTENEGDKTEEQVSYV
Procedure: The activity of the “E559 polymorph” at the 5-HT2B receptor was further assessed by 5-HT2B-mediated Gq dissociation (FIG. 14A), 5-HT2B-mediated 0-arrestin2 recruitment (FIG. 14B) and 5-HT2B Gq-mediated calcium flux assessments (FIG. 14C) using bioluminescence resonance energy transfer (BRET) assay in HEK293T cells FIG. 14A to C, 5-HT refers to serotonin). […] In 5-HT2B antagonist assays, the “E559 polymorph” antagonism was measured by its ability to block 5-HT2B receptor activation by 5-HT.

D2 dopamine receptor = D2 dopamine receptor (Homo sapiens, UniProt P14416); assay: BRET-based G protein dissociation assay; format: cell-based
Chain of D2 dopamine receptor (P14416 whole entry): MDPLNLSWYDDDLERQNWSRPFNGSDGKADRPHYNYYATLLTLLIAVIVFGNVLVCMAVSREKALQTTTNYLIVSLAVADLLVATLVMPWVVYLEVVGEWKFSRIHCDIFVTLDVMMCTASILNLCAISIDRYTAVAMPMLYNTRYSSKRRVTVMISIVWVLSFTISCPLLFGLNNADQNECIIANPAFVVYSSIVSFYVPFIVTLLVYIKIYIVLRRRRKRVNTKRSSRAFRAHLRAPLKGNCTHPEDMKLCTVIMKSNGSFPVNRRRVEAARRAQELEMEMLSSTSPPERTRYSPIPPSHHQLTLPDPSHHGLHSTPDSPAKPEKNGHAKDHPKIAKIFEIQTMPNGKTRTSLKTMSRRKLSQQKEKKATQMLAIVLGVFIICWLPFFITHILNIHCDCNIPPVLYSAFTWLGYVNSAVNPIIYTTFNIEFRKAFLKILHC

[7] = percentage of the reference ligand-induced maximal response, read-out: Emax

T1 sequence (Q13639 whole entry): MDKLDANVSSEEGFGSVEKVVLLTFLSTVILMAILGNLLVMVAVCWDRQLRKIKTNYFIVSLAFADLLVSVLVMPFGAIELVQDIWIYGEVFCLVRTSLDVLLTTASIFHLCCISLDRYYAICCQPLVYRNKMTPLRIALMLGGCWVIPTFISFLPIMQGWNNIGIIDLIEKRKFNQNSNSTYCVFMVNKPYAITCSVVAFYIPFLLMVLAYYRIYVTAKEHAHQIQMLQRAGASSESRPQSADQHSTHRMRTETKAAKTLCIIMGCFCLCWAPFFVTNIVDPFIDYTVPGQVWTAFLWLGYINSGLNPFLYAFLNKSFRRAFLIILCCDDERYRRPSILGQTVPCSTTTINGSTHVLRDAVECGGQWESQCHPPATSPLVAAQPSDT

SMILES: CCN(CC)C(=O)[C@@H]1C=C2c3cccc4[nH]c(Br)c(c34)C[C@H]2N(C)C1 [E559, (5R, 8R)-2-Bromo-9,10-didehydro-N,N-diethyl-6-methylergoline-8-carboxamide hemi-D-tartrate]
- functional activity at 5-HT4 (5-HT4 receptor): lack potent agonist activity at 5-HT4 receptor
- internalization of the 5-HT2A receptor (loss of surface expression) (5-HT2A receptor [1]; single 1 hour treatment): only exhibits weak internalization of the 5-HT2A receptor
- β-Arrestin2 recruitment at the 5-HT2A receptor (5-HT2A receptor [2]; percentage of the 5-HT-induced maximal response): weak recruiter of β-Arrestin2
- EC50 [3]: 214 nM
- EC50 [4]: 296 nM
- Emax [4]: 28.8%
- Kb [4]: 5190 nM
- EC50 (D5 dopamine receptor): 3.75 nM
- Emax (D5 dopamine receptor): 15.6%
- Kb (D5 dopamine receptor): 25.1 nM
- EC50 [5]: 0.04 nM
- Emax [5]: 15.6%
- functional activity at 5-HT6 (5-HT6; FIG. 15, FIG. 16A/B): acts as a very potent partial agonist
- EC50 (D1 dopamine receptor): 0.12 nM
- Kb (D1 dopamine receptor): 32.9 nM
- functional activity at 5-HT5A (5-HT5A receptor; FIG. 15): antagonizes this receptor subtype
- EC50 (D4 dopamine receptor): 1.22 nM
- Emax (D4 dopamine receptor): 67.3%
- EC50 [6]: 2.96 nM
- functional activity at 5-HT7 (5-HT7 receptor; FIG. 15, FIG. 16A/B, listed as E559 polymorph): act as potent antagonist and inverse agonists; also recorded: exhibits significantly greater inverse agonism than LSD
- head-twitch response (HTR) (male C57BL/6J mice; IP, E559 polymorph 0.1-10 mg/kg, LSD 0.1 mg/kg, 60 minutes): negative in HTR at all doses tested; also recorded: did not induce HTR above baseline at any tested dose
- antagonism of 5-HT-mediated activation of 5-HT2B (5-HT2B receptor; Gq dissociation, β-arrestin2 recruitment, calcium flux): antagonism was observed in blocking 5-HT-mediated activation of the 5-HT2B receptor in all three assays
- agonism at 5-HT2B (5-HT2B receptor; Gq dissociation, β-arrestin2 recruitment, calcium flux, listed as E559 polymorph): does not show the agonism seen with LSD; also recorded: inactive as an agonist at the 5-HT2B receptor
- EC50 (D2 dopamine receptor): 0.35 nM
- Emax (D2 dopamine receptor): 77.4%

SMILES: CCN(CC)C(=O)[C@@H]1C=C2c3cccc4[nH]cc(c34)C[C@H]2N(C)C1 [LSD, lysergic acid diethylamide, reference compound]
- functional activity at 5-HT4 (5-HT4 receptor): lack potent agonist activity at 5-HT4 receptor
- internalization of the 5-HT2A receptor (loss of surface expression) (5-HT2A receptor [1]): potent internalization
- β-Arrestin2 recruitment at the 5-HT2A receptor (5-HT2A receptor [2]): strong recruiters of β-Arrestin2
- EC50 ([3]; agonist mode, read-out: EC50): > 10000 nM
- EC50 ([4]; agonist mode, read-out: EC50): > 10000 nM
- Emax [4, 7]: 21.2%
- EC50 (D5 dopamine receptor; agonist mode, read-out: EC50): 166 nM
- Emax (D5 dopamine receptor; [7]): 70.7%
- EC50 ([5]; agonist mode, read-out: EC50): 454 nM
- functional activity at 5-HT6 (5-HT6): acts as a very potent partial agonist
- EC50 (D1 dopamine receptor): 108 nM
- Emax (D1 dopamine receptor): 41.3%
- functional activity at 5-HT5A (5-HT5A receptor): acts as a partial agonist
- EC50 (D4 dopamine receptor; agonist mode, read-out: EC50): 4.03 nM
- Emax (D4 dopamine receptor; [7]): 91.9%
- EC50 ([6]; agonist mode, read-out: EC50): 211 nM
- functional activity at 5-HT7 (5-HT7 receptor): act as potent antagonist and inverse agonists
- head-twitch response (HTR) (male C57BL/6J mice; mouse, in vivo): elicited a strong HTR
- agonism at 5-HT2B (5-HT2B receptor): shows potent agonism of the 5-HT2B receptor; also recorded: an agonist of 5-HT2B
- EC50 (D2 dopamine receptor): 2.17 nM
- Emax (D2 dopamine receptor): 86%
